Assay results as given in patent publication US4187292A, “Antibiotics produced from the microorganism nocardice” (Takeda Chemical Industries, Ltd., priority 1977, dated 1980).
Converted amounts (≈) assume the structure as drawn.

Tests used:
[1] = tested on: Bacillus pumilus; assay: Antimicrobial activity, serial dilution method; format: cell-based; conditions: IFO 3813; Trypticase-soy agar
Description: (§1) The antimicrobial activities of Antibiotics C-14919 E-1 and E-2 were assayed by the serial dilution method using Trypticase-soy agar (BBL), glucose nutrient agar and glycerol nutrient agar as test media (Table 5). In addition, the activities against Tetrahymena pyriformis W were determined by the serial dilution method using the assay medium [Proteose-peptone 20 g, yeast extract 1 g, glucose 2 g, distilled water 1000 ml, 1 M-phosphate buffer (pH 7.0) 10 ml].

[2] = tested on: Bacillus subtilis 6633; assay: Antimicrobial activity, serial dilution method; format: cell-based; conditions: IFO 3134; Trypticase-soy agar
Description: as §1

[3] = tested on: Bacillus megaterium; assay: Antimicrobial activity, serial dilution method; format: cell-based; conditions: IFO 12108; Trypticase-soy agar
Description: as §1

[4] = tested on: Bacillus brevis; assay: Antimicrobial activity, serial dilution method; format: cell-based; conditions: IFO 3331; Trypticase-soy agar
Description: as §1

[5] = tested on: Bacillus subtilis PCI219; assay: Antimicrobial activity, serial dilution method; format: cell-based; conditions: IFO 3513; Trypticase-soy agar
Description: as §1

[6] = tested on: Pseudomonas aeruginosa; assay: Antimicrobial activity, serial dilution method; format: cell-based; conditions: IFO 3080; Trypticase-soy agar
Description: as §1

[7] = tested on: Proteus vulgaris; assay: Antimicrobial activity, serial dilution method; format: cell-based; conditions: IFO 3045; Trypticase-soy agar
Description: as §1

[8] = tested on: Serratia marcescens; assay: Antimicrobial activity, serial dilution method; format: cell-based; conditions: IFO 3046; Trypticase-soy agar
Description: as §1

[9] = tested on: Salmonella typhimurium; assay: Antimicrobial activity, serial dilution method; format: cell-based; conditions: IFO 12529; Trypticase-soy agar
Description: as §1

[10] = tested on: Staphylococcus aureus 209P; assay: Antimicrobial activity, serial dilution method; format: cell-based; conditions: IFO 12732; Trypticase-soy agar
Description: as §1

[11] = tested on: Escherichia coli K-12; assay: Antimicrobial activity, serial dilution method; format: cell-based; conditions: IFO 3301; Trypticase-soy agar
Description: as §1

[12] = tested on: Alcaligenes faecalis; assay: Antimicrobial activity, serial dilution method; format: cell-based; conditions: IFO 13111; Trypticase-soy agar
Description: as §1

[13] = tested on: Sarcina lutea; assay: Antimicrobial activity, serial dilution method; format: cell-based; conditions: IFO 3232; Trypticase-soy agar
Description: as §1

[14] = tested on: Micrococcus flavus; assay: Antimicrobial activity, serial dilution method; format: cell-based; conditions: IFO 3242; Trypticase-soy agar
Description: as §1

[15] = tested on: Bacillus cereus; assay: Antimicrobial activity, serial dilution method; format: cell-based; conditions: IFO 3514; Trypticase-soy agar
Description: as §1

[16] = Acute toxicity test in mice; format: in vivo; conditions: intraperitoneal administration
Text: The assumed LD50 as determined by intraperitoneal administration of C-14919 E-1 and E-2 in an acute toxicity test using mice as test animals are as follows.

[17] = tested on: Gram-positive bacteria, fungi and yeasts; assay: Antimicrobial spectrum (summary of Table 5); format: cell-based; conditions: antimicrobial spectrum of Table 5
Description: as §1

[18] = tested on: Candida albicans; assay: Antimicrobial activity, serial dilution method (Trypticase-soy agar); format: cell-based; conditions: IFO 0583
Description: as §1

[19] = tested on: Tetrahymena pyriformis W; assay: Activity against Tetrahymena pyriformis W, serial dilution method; format: cell-based; conditions: Proteose-peptone solution, pH 7.0
Description: as §1
****Proteose-peptone solution

[20] = Stability in solution; format: physicochemical
[21] = tested on: Aspergillus niger; assay: Antimicrobial activity, serial dilution method; format: cell-based; conditions: IFO 4066; Glucose nutrient agar
Description: as §1
(§2) **Glucose nutrient agar

[22] = tested on: Microsporum cookei; assay: Antimicrobial activity, serial dilution method; format: cell-based; conditions: IFO 8303; Glucose nutrient agar
Description: as §1, §2

[23] = tested on: Trychophyton rubrum; assay: Antimicrobial activity, serial dilution method; format: cell-based; conditions: IFO 5467; Glucose nutrient agar
Description: as §1, §2

[24] = tested on: Hormodendrum pedrosoi; assay: Antimicrobial activity, serial dilution method; format: cell-based; conditions: IFO 6071; Glucose nutrient agar
Description: as §1, §2

[25] = tested on: Penicillium chrysogenum; assay: Antimicrobial activity, serial dilution method; format: cell-based; conditions: IFO 4626; Glucose nutrient agar
Description: as §1, §2

[26] = tested on: Candida utilis; assay: Antimicrobial activity, serial dilution method; format: cell-based; conditions: IFO 0619; Glucose nutrient agar
Description: as §1, §2

[27] = tested on: Cryptococcus neoformans; assay: Antimicrobial activity, serial dilution method; format: cell-based; conditions: IFO 0410; Glucose nutrient agar
Description: as §1, §2

[28] = tested on: Candida; assay: Antimicrobial activity, serial dilution method; format: cell-based; conditions: IFO 1396; Glucose nutrient agar
Description: as §1, §2

[29] = tested on: Candida tropicalis; assay: Antimicrobial activity, serial dilution method; format: cell-based; conditions: IFO 1400; Glucose nutrient agar
Description: as §1, §2

[30] = tested on: Saccharomyces cerevisiae; assay: Antimicrobial activity, serial dilution method; format: cell-based; conditions: IFO 0209; Glucose nutrient agar
Description: as §1, §2

[31] = tested on: Microsporum canis; assay: Antimicrobial activity, serial dilution method; format: cell-based; conditions: IFO 7863; Glucose nutrient agar
Description: as §1, §2

[32] = tested on: Candida krusei; assay: Antimicrobial activity, serial dilution method; format: cell-based; conditions: IFO 1395; Glucose nutrient agar
Description: as §1, §2

[33] = tested on: Candida pseudotropicalis; assay: Antimicrobial activity, serial dilution method; format: cell-based; conditions: IFO 0617; Glucose nutrient agar
Description: as §1, §2

[34] = Solubility; format: physicochemical
[35] = tested on: P388 leukemia; assay: Therapeutic activity against P388 leukemia in mice; format: in vivo; conditions: for antitumour activity in terms of the extension of life spans: 5 mg/kg/day, intraperitoneally, consecutive days, P388 1×10^6 cells/animal i.p. transplanted; for life-extending effect upon tumour-bearing mammals: e.g. mouse
Description: The therapeutic activity (intraperitoneally administered for a consecutive days) of C-14919 E-1 and E-2 against P388 leukemia in mice (1×10^6 cells/animal, mouse, itraperitoneally transplanted) was investigated. The antitumour activity in terms of the extension of life spans was 144% at the dose level of 5 mg/kg/day.

[36] = tested on: Candida albicans; assay: Antimicrobial activity, serial dilution method (Glucose nutrient agar); format: cell-based; conditions: IFO 0583
Description: as §1, §2

[37] = tested on: Mycobacterium phlei; assay: Antimicrobial activity, serial dilution method; format: cell-based; conditions: Glycerol nutrient agar
Description: as §1
(§3) ***Glycerol nutrient agar

[38] = tested on: Mycobacterium avium; assay: Antimicrobial activity, serial dilution method; format: cell-based; conditions: Glycerol nutrient agar
Description: as §1, §3

[39] = Acid, neutral or basic nature / lipophilicity; format: physicochemical
[40] = Room temp., basic solution/conditions
[41] = Room temp., neutral and weakly acidic solutions/conditions

COC1CC(C)C(OC)c2cc(O)cc(c2O)NC(=O)/C(C)=C/C=C\C(C)C(OC(N)=O)/C(C)=C/C(C)C1OC (centres unmarked) [C-14919 E-2]
MIC [1]: 100 µg/mL (≈ 178 µM) | MIC [2]: 100 µg/mL (≈ 178 µM) | MIC [3]: 50 µg/mL (≈ 89.2 µM) | MIC [4]: 50 µg/mL (≈ 89.2 µM) | MIC [5]: > 100 µg/mL | MIC [6]: > 100 µg/mL | MIC [7]: > 100 µg/mL | MIC [8]: > 100 µg/mL | MIC [9]: > 100 µg/mL | MIC [10]: > 100 µg/mL | MIC [11]: > 100 µg/mL | MIC [12]: 100 µg/mL (≈ 178 µM) | MIC [13]: 50 µg/mL (≈ 89.2 µM) | MIC [14]: 50 µg/mL (≈ 89.2 µM) | MIC [15]: > 100 µg/mL | assumed LD50 [16]: 25 to 100 mg/kg | antimicrobial activity [17]: display activity against Gram-positive bacteria, fungi and yeasts | MIC [18]: 6.25 µg/mL (≈ 11.1 µM) | MIC [19]: 10 µg/mL (≈ 17.8 µM) | Stability ([20]; 80° C., 1 hr.): unstable | Stability [20, 40]: Unstable | Stability [20, 41]: Stable | MIC [21]: 100 µg/mL (≈ 178 µM) | MIC [22]: > 100 µg/mL | MIC [23]: > 100 µg/mL | MIC [24]: > 100 µg/mL | MIC [25]: 25 µg/mL (≈ 44.6 µM) | MIC [26]: > 100 µg/mL | MIC [27]: > 100 µg/mL | MIC [28]: 25 µg/mL (≈ 44.6 µM) | MIC [29]: > 100 µg/mL | MIC [30]: 100 µg/mL (≈ 178 µM) | MIC [31]: > 100 µg/mL | MIC [32]: > 100 µg/mL | MIC [33]: 100 µg/mL (≈ 178 µM) | Solubility in acetone [34]: Soluble | Solubility in benzene [34]: Sparingly soluble | Solubility in butanol [34]: Soluble | Solubility in chloroform [34]: Sparingly soluble | Solubility in diethyl ether [34]: Sparingly soluble | Solubility in dimethylsulfoxide [34]: Readily soluble | Solubility in ethanol [34]: Soluble | Solubility in ethyl acetate [34]: Soluble | Solubility in hexane [34]: Insoluble | Solubility in methanol [34]: Soluble | Solubility in methyl isobutyl ketone [34]: Soluble | Solubility in petroleum ether [34]: Insoluble | Solubility in water [34]: Sparingly soluble | antitumour activity in terms of the extension of life spans [35]: 144% | life-extending effect upon tumour-bearing mammals [35]: life-extending effect | MIC [36]: 25 µg/mL (≈ 44.6 µM) | MIC [37]: > 100 µg/mL | MIC [38]: > 100 µg/mL | Acid, neutral or basic [39]: a neutral substance | lipophilicity [39]: lipophyl

COC1C[C@H](C)[C@@H](OC)C2=CC(=O)C=C(NC(=O)/C(C)=C/C=C\[C@H](C)C(OC(N)=O)/C(C)=C/[C@@H](C)[C@@H]1OC)C2=O (some centres unmarked) [C-14919 E-1]
MIC [1]: 50 µg/mL (≈ 89.5 µM) | MIC [2]: 50 µg/mL (≈ 89.5 µM) | MIC [3]: 50 µg/mL (≈ 89.5 µM) | MIC [4]: 50 µg/mL (≈ 89.5 µM) | MIC [5]: 100 µg/mL (≈ 179 µM) | MIC [6]: > 100 µg/mL | MIC [7]: > 100 µg/mL | MIC [8]: > 100 µg/mL | MIC [9]: > 100 µg/mL | MIC [10]: > 100 µg/mL | MIC [11]: > 100 µg/mL | MIC [12]: > 100 µg/mL | MIC [13]: 50 µg/mL (≈ 89.5 µM) | MIC [14]: 50 µg/mL (≈ 89.5 µM) | MIC [15]: > 100 µg/mL | assumed LD50 [16]: 50 to 100 mg/kg | antimicrobial activity [17]: display activity against Gram-positive bacteria, fungi and yeasts | MIC [18]: 25 µg/mL (≈ 44.7 µM) | MIC [19]: 10 µg/mL (≈ 17.9 µM) | Stability ([20]; 80° C., 1 hr.): unstable | Stability [20, 40]: Unstable | Stability [20, 41]: Stable | MIC [21]: 100 µg/mL (≈ 179 µM) | MIC [22]: > 100 µg/mL | MIC [23]: > 100 µg/mL | MIC [24]: > 100 µg/mL | MIC [25]: 50 µg/mL (≈ 89.5 µM) | MIC [26]: > 100 µg/mL | MIC [27]: > 100 µg/mL | MIC [28]: 50 µg/mL (≈ 89.5 µM) | MIC [29]: > 100 µg/mL | MIC [30]: 100 µg/mL (≈ 179 µM) | MIC [31]: > 100 µg/mL | MIC [32]: > 100 µg/mL | MIC [33]: 100 µg/mL (≈ 179 µM) | Solubility in acetone [34]: Soluble | Solubility in benzene [34]: Sparingly soluble | Solubility in butanol [34]: Soluble | Solubility in chloroform [34]: Soluble | Solubility in diethyl ether [34]: Sparingly soluble | Solubility in dimethylsulfoxide [34]: Readily soluble | Solubility in ethanol [34]: Soluble | Solubility in ethyl acetate [34]: Soluble | Solubility in hexane [34]: Insoluble | Solubility in methanol [34]: Soluble | Solubility in methyl isobutyl ketone [34]: Soluble | Solubility in petroleum ether [34]: Insoluble | Solubility in water [34]: Insoluble | antitumour activity in terms of the extension of life spans [35]: 144% | life-extending effect upon tumour-bearing mammals [35]: life-extending effect | MIC [36]: 50 µg/mL (≈ 89.5 µM) | MIC [37]: > 100 µg/mL | MIC [38]: > 100 µg/mL | Acid, neutral or basic [39]: a neutral substance | lipophilicity [39]: lipophyl
